Results published in patent US4666908A, “5-Substituted pyrazolo[4,3-d]pyrimidine-7-ones and methods of use” (Warner-Lambert Company, priority 1985, dated 1987).
Like-named read-outs stand apart in the source and are kept apart here.

Tests used:
[1] = target: T1, adenosine A1 receptor (Rattus norvegicus, UniProt P25099); experiment: Adenosine Receptor Binding - A1 Receptor Affinity (RBA1), [3H]-N6-cyclohexyladenosine displacement; conditions: [3H]-CHA 1.0 nM, rat brain membranes, 25° C., one hour; read-out: RBA-1, IC50 for adenosine A1 receptor affinity
T1 construct: Whole brain minus cerebellum and brainstem from male Long Evans rats; from tissue; host or cells: whole brain minus cerebellum and brainstem, male Long Evans rats (membranes)
T1 sequence (P25099 1-326): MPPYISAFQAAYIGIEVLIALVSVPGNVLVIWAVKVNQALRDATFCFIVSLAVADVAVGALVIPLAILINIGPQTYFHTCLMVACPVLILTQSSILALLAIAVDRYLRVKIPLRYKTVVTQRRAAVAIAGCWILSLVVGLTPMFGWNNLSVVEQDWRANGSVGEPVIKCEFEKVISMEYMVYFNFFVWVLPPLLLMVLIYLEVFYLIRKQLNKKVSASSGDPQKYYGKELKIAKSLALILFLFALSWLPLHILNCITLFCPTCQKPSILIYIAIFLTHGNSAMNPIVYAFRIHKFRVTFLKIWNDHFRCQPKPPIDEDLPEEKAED
Experimental: Whole brain minus cerebellum and brainstem from male Long Evans rats (150-200 g) was homogenized in 30 volumes of ice-cold 0.05M Tris-HCl buffer pH 7.7 using a Brinkman Polytron PT-10, (setting number 6 for 20 seconds) and centrifuged for ten minutes at 20,000×g (Sorvall RC-2), 4° C. The supernatant was discarded, and the pellet was resuspended and centrifuged as before. […] The homogenate was again centrifuged, and the final pellet was resuspended in ice-cold 0.05 M Tris-HCl buffer pH 7.7 to a concentration of 20 mg/ml original wet tissue weight and used immediately. […] Incubation volume was 2 ml. […] The filters were rinsed three times with 5 ml of ice cold 0.05 M Tris-HCl buffer pH 7.7. The radio-labeled ligand retained on the filter was measured by liquid scintillation spectrophotometry after shaking the filters for one hour or longer on a mechanical shaker in 10 ml of Beckman Ready-Solv HP scintillation cocktail. […] The Hill coefficient was calculated by linear regression of the line obtained by plotting the log of the bound radioligand vs the log of the [formula] The maximal number of binding sites (Bmax) was calculated from the Scatchard plot.

[2] = system: pentobarbital-anesthetized dog; experiment: In Vivo Myocardial Inotropic Activity in Anesthetized Dog (CVAD); design: species or system dog (adult mongrel); conditions: for change in vivo at 0.1 mg/kg / change in vivo at 0.31 mg/kg / change in vivo at 1 mg/kg / change in vivo at 3.1 mg/kg: Canis lupus familiaris, iv; for change in vivo at 3.1 mg/kg: 3.10 mg/kg IV
Experimental: This test procedure is described in the following paragraphs.
This screen consists of determining the effects of increasing intravenous doses of compound on mycardial contractility (dP/dt max of left ventricular blood pressure), heart rate, and aortic blood pressure of the pentobarbital-anesthetized dog.
Adult mongrel dogs of either sex are anesthetized with pentobarbital, 35 mg/kg, IV, and are subsequently maintained under anesthesia with a continuous infusion of pentobarbital, 3.5 mg/kg/hour. The trachea is intubated but the animals are permitted to breathe spontaneously. A cannula is inserted into the femoral vein for administrating test agents. A Millar catheter tip pressure transducer or a fluid filled catheter is inserted into the ascending aorta via the femoral artery for measuring aortic blood pressure. A Millar catheter tip pressure transducer is passed into the left ventricle via the left carotid artery for measuring left ventricular blood pressure. Needle electrodes are placed subcutaneously for recording a lead II electrocardiogram (ECG).
Left ventricular and aortic blood pressures are recorded on a strip chart recorder. Heart rate, using a biotachometer triggered from the R wave of the ECG, and the first derivative of left ventricular blood pressure (dP/dt), obtained with a differentiator amplifier coupled to the corresponding pressure amplifier, are also recorded. A period of at least 30 minutes is utilized to obtain control data prior to administration of test compound.
Ethanol or dimethylacetamide can be used as solvents if adequate dilutions can be made. Appropriate vehicle controls are administered when needed.
Each dose of the test compound is administered in a volume of […] over a period of one minute.

[3] = system: Type 3 Phosphodiesterase; experiment: Phosphodiesterase (PDE) Inhibition, Type 3 Phosphodiesterase; assay type: biochemical, bovine (coronary arteries); conditions: Type 3 PDE, at 10^-5 M, substrate 3H-cAMP 1.0 μM
Excerpt: (§1) The method of Thompson, et al (Thompson, W. J., Terasaki, W. L., Epstein, P. M., Strada, S. J., Adv. Cyclic Nucleotide Res., 10:69-92, 1979), with minor modifications, was used to isolate phosphodiesterases from vascular smooth muscle. Bovine coronary arteries (right, anterior descending, and left circumflex arteries) from hearts obtained from a local slaughterhouse were used for these studies. Arteries from two hearts were used for each isolation. Hearts were kept on ice and the arteries were dissected within two hours after the animals were sacrificed. After removing all fat and connective tissue, the arteries were everted, cut into cubes with a single edge razor blade and homogenized with a Brinkman Polytron three times at a rheostat setting of 10.0 in four volumes of the PDE isolation buffer (10 mM Tris-HCl/pH 7.5, 2 mM MgCl2, and 1 mM dithiothreitol). The resulting homogenate was sonicated (30 sec/ml homogenate) and then centrifuged at 30,000 xg for 20 minutes. This and all subsequent procedures were performed at 4° C. The resulting supernatant was filtered through four layers of gauze, and applied to a DEAE-cellulose column (30×1.5 cm), prepared as described by Cheung (Cheung, W. Y., Biochim. Biophys. Acta, 191:303-315, 1969), and equilibrated with freshly prepared 70 mM sodium acetate/5 mM 2-mercaptoethanol (pH 6.5). The column was then washed with 2-3 bed volumes of sodium acetate/2-mercaptoethanol, after which the phosphodiesterases were eluted from the column using a continuous 70-1,000 mM sodium acetate gradient (pH 6.5, containing 5 mM 2-mercaptoethanol; total volume 400 ml). The flow rate was approximately equal to 25 ml/hr. Eight ml fractions were collected and assayed for cyclic AMP- and cyclic GMP-phosphodiesterase activity in the presence and absence of 0.1 units of calmodulin and 10 mM CaCl2. Appropriate fractions were pooled and dialyzed against 70 mM sodium acetate/5 mM 2-mercaptoethanol for 20 hours.
(§2) Following complete separation, the combined phosphodiesterase fractions were concentrated to 14% of the original volume using an Amicon ultrafiltration cell fitted with a UM-10 membrane, according to the method of Wells, et al (Wells, J. N., Baird, C. E., Wu, Y. J., Hardman, J. G., Biochim. Biophys. Acta, 384:430-442, 1975). Following concentration, the protein was then diluted to 65% with ethylene glycol monoethyl ether, and stored at -20° C.
(§3) Phosphodiesterase activity was measured as described previously (Weishaar, P. E., Quade, M., Boyd, D., Schenden, J., Mark, S. S., Kaplan, H. R., Drug Devel. Res., 3:517-534, 1983), in a reaction medium containing 40 mM Tris-HCl (pH 8.0), 5 mM MgCl and 4 mM 2-mercaptoethanol. Unless otherwise noted, the concentration of substrate (^3 H-cyclic AMP or ^3 H-cyclic GMP) was 1.0 μM. All agents examined were dissolved in dimethyl sulfoxide (DMSO). Final concentration of the reaction medium was either 2.5% (cardiac and platelet studies) or 1.25% (smooth muscle studies). This concentration of DMSO produced an approximately 10% inhibition of enzyme activity.

[4] = system: Type 1 Phosphodiesterase; experiment: Phosphodiesterase (PDE) Inhibition, Type 1 Phosphodiesterase; assay type: biochemical, bovine (coronary arteries); conditions: Type 1 PDE, at 10^-5 M; for % Inhibition of hydrolysis of 3H-cAMP: substrate 3H-cAMP 1.0 μM; for % Inhibition of hydrolysis of 3H-cGMP: substrate 3H-cGMP 1.0 μM
Excerpt: as §1, §2, §3

[5] = 0.10 mg/kg IV, read-out: Percent Change Heart Rate
[6] = 0.10 mg/kg IV, read-out: Percent Change Myocardial Contractility
[7] = 0.31 mg/kg IV, read-out: Percent Change Heart Rate
[8] = 0.31 mg/kg IV, read-out: Percent Change Myocardial Contractility
[9] = 1.00 mg/kg IV, read-out: Percent Change Heart Rate
[10] = 1.00 mg/kg IV, read-out: Percent Change Myocardial Contractility
[11] = read-out: Percent Change Heart Rate
[12] = read-out: Percent Change Myocardial Contractility

Compound	IC50 [1]	% Inhibition of hydrolysis of 3H-cAMP [3]	% Inhibition of hydrolysis of 3H-cAMP [4]	% Inhibition of hydrolysis of 3H-cGMP [4]	Percent Change Blood Pressure ([2]; 0.10 mg/kg IV)	Percent Change Blood Pressure ([2]; 0.31 mg/kg IV)	Percent Change Blood Pressure ([2]; 1.00 mg/kg IV)	change in vivo at 0.1 mg/kg [2, 5]	change in vivo at 0.1 mg/kg [2, 6]	change in vivo at 0.31 mg/kg [2, 7]	change in vivo at 0.31 mg/kg [2, 8]	change in vivo at 1 mg/kg [2, 9]	change in vivo at 1 mg/kg [2, 10]	change in vivo at 3.1 mg/kg [2, 11]	change in vivo at 3.1 mg/kg [2, 12]	change in vivo at 0.1 mg/kg ([2]; 0.10 mg/kg IV, read-out: Percent Change Blood Pressure)	change in vivo at 1 mg/kg ([2]; 1.00 mg/kg IV, read-out: Percent Change Blood Pressure)	change in vivo at 3.1 mg/kg ([2]; read-out: Percent Change Blood Pressure)
CCn1nc(C)c2nc(-c3ccccc3)[nH]c(=O)c21 [Example 5, 1-Ethyl-3-methyl-5-phenylpyrazolo[4,3-d]pyrimidine-7-one]	670 nM	56%	29%	29%				7%	10%			43%	77%	50%	100%	2%	1%	1%
Cc1nn(C)c2c(=O)[nH]c(-c3ccc([N+](=O)[O-])cc3)nc12 [Example 9, 1,3-Dimethyl-5-(4-nitrophenyl)pyrazolo[4,3-d]pyrimidine-7-one]	880 nM	1%	16%	6%				1%	4%	0%	5%	-3%	4%	1%	2%			
COc1ccc(-c2nc3c(C)nn(C)c3c(=O)[nH]2)cc1OC [Example 16, 1,3-Dimethyl-5-(3,4-dimethoxyphenyl)pyrazolo[4,3-d]pyrimidine-7-one]	1920 nM	17%	10%	17%		1/3	1/2	1%	2%	-1%	-1%	-2%	-1%					
Cc1nn(C)c2c(=O)[nH]c(-c3cccc(N)c3)nc12 [Example 12, 1,3-Dimethyl-5-(3-aminophenyl)pyrazolo[4,3-d]pyrimidine-7-one]	1540 nM	33%	6%	9%				-8%	-1%	-10%	-19%	-8%	-12%					

The remaining compounds from weak to strong by IC50 [1], led by results:

IC50 [1]	% Inhibition of hydrolysis of 3H-cAMP [3]	% Inhibition of hydrolysis of 3H-cAMP [4]	% Inhibition of hydrolysis of 3H-cGMP [4]	Compound	Percent Change Blood Pressure ([2]; 0.10 mg/kg IV)	Percent Change Blood Pressure ([2]; 0.31 mg/kg IV)	Percent Change Blood Pressure ([2]; 1.00 mg/kg IV)	change in vivo at 0.1 mg/kg [2, 5]	change in vivo at 0.1 mg/kg [2, 6]	change in vivo at 0.31 mg/kg [2, 7]	change in vivo at 0.31 mg/kg [2, 8]	change in vivo at 1 mg/kg [2, 9]	change in vivo at 1 mg/kg [2, 10]	change in vivo at 3.1 mg/kg [2, 11]	change in vivo at 3.1 mg/kg [2, 12]	change in vivo at 0.1 mg/kg ([2]; 0.10 mg/kg IV, read-out: Percent Change Blood Pressure)	change in vivo at 1 mg/kg ([2]; 1.00 mg/kg IV, read-out: Percent Change Blood Pressure)	change in vivo at 3.1 mg/kg ([2]; read-out: Percent Change Blood Pressure)
3090 nM	3%	6%	4%	Cc1nn(C)c2c(=O)[nH]c(-c3cccnc3)nc12 [Example 4, 1,3-Dimethyl-5-(3-pyridyl)pyrazolo[4,3-d]pyrimidine-7-one]	0/0			0%	2%	1%	7%	4%	27%	9%	55%			
1020 nM	35%	6%	14%	Cc1nn(C)c2c(=O)[nH]c(-c3ccccc3)nc12 [Example 6, 1,3-Dimethyl-5-phenylpyrazolo[4,3-d]pyrimidine-7-one]				-1%	4%	-4%	3%	7%	20%	37%	45%			
385 nM	32%	19%	15%	Cc1nn(C)c2c(=O)[nH]c(-c3ccc(N)cc3)nc12 [Example 11, 1,3-Dimethyl-5-(4-aminophenyl)pyrazolo[4,3-d]pyrimidine-7-one]	1/1	5/3	1/0	1%	9%	3%	17%	5%	25%	15%	66%			
